# Reference: the OPERA property sets (Mansouri et al. 2018)
row,logP,Structure (SMILES)
1,2.7,CCOc1ccc2cc(O)c(O)cc2c1
2,3.37,CCCCCCNC(=O)C=Cc1ccc(O)c(O)c1
3,1.67,O=C(C=Cc1ccc(O)c(O)c1)CCCCCO
4,1.99,COc1ccc(CNC(=O)C=Cc2ccc(O)c(O)c2)cc1OC
5,2.72,O=C(C=Cc1ccc(O)c(O)c1)NCCc1ccccc1
6,2.71,CCCCCCNC(=O)c1ccc(O)c(O)c1
7,3.25,CCc1ccc2cc(O)c(O)cc2c1
8,2.32,CCCCCC(O)c1ccc(O)c(O)c1 (stereo unspecified)
9,3.82,CCCCC=Cc1ccc(O)c(O)c1
10,2.96,CCCCc1ccc(O)c(O)c1
11,2.72,CCCCNC(=O)c1ccc2cc(O)c(O)cc2c1
12,2.48,O=C(C=Cc1ccc(O)c(O)c1)NCc1ccccc1
13,2.07,COc1ccc(CCNC(=O)C=Cc2ccc(O)c(O)c2)cc1OC
14,2.3,COc1ccc(NC(=O)C=Cc2ccc(O)c(O)c2)cc1OC
15,2.61,CCCC(=O)C=Cc1ccc(O)c(O)c1
16,3.53,CCCCOC(=O)/C=C/c1ccc(O)c(O)c1
